Experimental data as given in patent US20030032003A1, “IN VIVO SELECTION” (priority 2000, published 2003).

Experiments:
[1] = tested on: Neo −/− mice; test: Acute toxicity of G418; format: in vivo, mouse; details: 10 days
Description: (§1) As in Example 1, applicants characterized the tissue specific expression of neoR mRNA and furthermore, investigated acute tissue specific toxicities of G418 in neo^R+/+ mice. The neoR mRNA reached highest levels in testis, intermediate in brain, kidney and liver. Low levels were detected in heart skeletal muscle and lungs and almost undetectable low levels in spleen. For acute toxicity determination the animals were treated with a single dose i.p. at concentrations starting at 47 mg/kg and increased thereafter by approximately 50% for each consecutive dose. The neoR expression in transgenic animals caused 10-fold increase of the approximate lethal dose of G418 (Table 4).

[2] = tested on: neo +/+ transgenic mice; test: Acute toxicity of G418; format: in vivo, mouse; details: for survival / body weight, percentage of the body weight before the experiment: Neo +/+, 10 days
Description: as §1

[3] = tested on: neo^R mice; test: Biochemical analysis of mouse serum after G418; format: in vivo; details: 335 mg/kg single i.p., serum 48 hrs after treatment
Description: (§2) BUN and CRE levels are diagnostic markers of kidney damage. […] In these transgenic animals G418 at the highest dose (1140 mg/kg) caused immediate toxicity resulting in death due to breath failure within 10 minutes after injection.

[4] = tested on: wildtype mice; test: Biochemical analysis of mouse serum after G418; format: in vivo; details: 335 mg/kg single i.p., serum 48 hrs after treatment
Description: as §2

In the case of `CN[C@@H]1[C@@H](O)[C@@H](O[C@@H]2[C@@H](O)[C@H](O[C@H]3O[C@H]([C@@H](C)O)[C@@H](O)[C@H](O)[C@H]3N)[C@@H](N)C[C@H]2N)OC[C@]1(C)O` [G418], the “body weight, percentage of the body weight before the experiment” value (“body weight, percentage” for short) ([1]; 47 mg/kg single i.p.) was 101 ± 1%, the survival ([1]; 47 mg/kg single i.p.) was “surv (surv, animals survived the 10 day period)” and the “body weight, percentage” value ([1]; 68 mg/kg single i.p.) was 104 ± 4%. The survival ([1]; 68 mg/kg single i.p.) was “surv (surv, animals survived the 10 day period)”, the “body weight, percentage” value ([1]; 103 mg/kg single i.p.) was 73 ± 6% and the survival ([1]; 103 mg/kg single i.p.) was 8 days. For the same compound, the “body weight, percentage” value ([1]; 153 mg/kg single i.p.) was 73 ± 5%, the survival ([1]; 153 mg/kg single i.p.) was 8 days and the “body weight, percentage” value ([1]; 230 mg/kg single i.p.) was 85 ± 2%. The survival ([1]; 230 mg/kg single i.p.) was 4 days, the “body weight, percentage” value ([1]; 345 mg/kg single i.p.) was 97 ± 1% and the survival ([1]; 345 mg/kg single i.p.) was 1 days. For the same compound, the “body weight, percentage” value ([1]; 480 mg/kg single i.p.) was 99 ± 1%, the survival ([1]; 480 mg/kg single i.p.) was 1 days and the “body weight, percentage” value ([1]; 778 mg/kg single i.p.) was 100 ± 2%. The survival ([1]; 778 mg/kg single i.p.) was 1 days, the survival ([2]; 47 mg/kg single i.p.) was “surv (surv, animals survived the 10 day period)” and the “body weight, percentage” value ([2]; 68 mg/kg single i.p.) was 100 ± 1%. The survival ([2]; 68 mg/kg single i.p.) was “surv (surv, animals survived the 10 day period)”, the survival ([2]; 103 mg/kg single i.p.) was “surv (surv, animals survived the 10 day period)” and the “body weight, percentage” value ([2]; 153 mg/kg single i.p.) was 102 ± 3%. The survival ([2]; 153 mg/kg single i.p.) was “surv (surv, animals survived the 10 day period)”, the “body weight, percentage” value ([2]; 230 mg/kg single i.p.) was 100 ± 2% and the survival ([2]; 230 mg/kg single i.p.) was “surv (surv, animals survived the 10 day period)”. The “body weight, percentage” value ([2]; 345 mg/kg single i.p.) was 98 ± 4%, the survival ([2]; 345 mg/kg single i.p.) was “surv (surv, animals survived the 10 day period)” and the “body weight, percentage” value ([2]; 480 mg/kg single i.p.) was 100 ± 1%. The survival ([2]; 480 mg/kg single i.p.) was “surv (surv, animals survived the 10 day period)”, the “body weight, percentage” value ([2]; 778 mg/kg single i.p.) was 101 ± 1% and the survival ([2]; 778 mg/kg single i.p.) was “surv (surv, animals survived the 10 day period)”. For the same compound, the “body weight, percentage” value ([2]; 1140 mg/kg single i.p.) was 100 ± 1%, the survival ([2]; 1140 mg/kg single i.p.) was 1 days and the “increase of the approximate lethal dose” value ([2]; neoR expression in transgenic animals vs wild type) was 10 fold. For the same compound, the “time to death due to breath failure after injection” value ([2]; neo^R transgenic animals, highest dose 1140 mg/kg) was no more than 10 min, the ALT [3] was 54.3 ± 14.4 u/l and the BUN [3] was 22.3 ± 0.9 mg/dL. The CRE [3] was 0.23 ± 0.05 mg/dL, the ALT [4] was 102.0 ± 9.4 u/l and the BUN [4] was 96.0 ± 14.2 mg/dL. For the same compound, the CRE [4] was 0.67 ± 0.05 mg/dL.
